Measured values as given in PubChem BioAssay (NCI).
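Growth conditions: 96-well plates. Treatment: test compound, 48 hours, 5 concentrations. Analysis: linear interpolation between bracketing concentrations; unreached endpoints set to highest concentration. GI50 = concentration required for 50% inhibition of growth. The concentration for full growth arrest is given as TGI.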

Legend:
Test in all cases: NCI anticancer screen, dose series, 48 h
A549 NSCLC = test system: A549 NSCLC
CAKI-1 renal = test system: CAKI-1 renal
COLO 205 colon = test system: COLO 205 colon
HL-60(TB) leukemia = test system: HL-60(TB) leukemia
K-562 leukemia = test system: K-562 leukemia
SK-MEL-28 melanoma = test system: SK-MEL-28 melanoma
SK-MEL-5 melanoma = test system: SK-MEL-5 melanoma
TK-10 renal = test system: TK-10 renal
SR leukemia = test system: SR leukemia
PC-3 prostate = test system: PC-3 prostate

SMILES	TGI (A549 NSCLC)	TGI (CAKI-1 renal)	TGI (COLO 205 colon)	TGI (HL-60(TB) leukemia)	TGI (K-562 leukemia)	TGI (SK-MEL-28 melanoma)	TGI (SK-MEL-5 melanoma)	TGI (TK-10 renal)	GI50 (A549 NSCLC)	GI50 (CAKI-1 renal)	GI50 (COLO 205 colon)	GI50 (HL-60(TB) leukemia)	GI50 (K-562 leukemia)	GI50 (SK-MEL-28 melanoma)	GI50 (SK-MEL-5 melanoma)	GI50 (SR leukemia)	TGI (SR leukemia)	GI50 (TK-10 renal)	GI50 (PC-3 prostate)	TGI (PC-3 prostate)
CC1=C(C(=O)Nc2cc(=O)n(C)c(=O)n2C)C(c2cccc([N+](=O)[O-])c2)C(C(=O)Nc2cc(=O)n(C)c(=O)n2C)=C(C)N1	> 100 µM	> 100 µM	> 100 µM	> 100 µM	> 100 µM	> 100 µM	> 100 µM	> 100 µM	–	–	–	–	–	–	–	–	–	–	–	–
COc1cc(OC)c(SSCCCCS(=O)O)c(OC)c1	40.3 µM	–	35.7 µM	24.8 µM	89.3 µM	29.7 µM	22.3 µM	42.9 µM	–	–	–	–	–	–	–	–	–	–	–	–
C[C@]12CCC(=O)C(O)=C1CC[C@@H]1C2CC[C@]2(C)NC(=O)CCC12 (some centres undefined)	> 100 µM	> 100 µM	> 100 µM	> 100 µM	> 100 µM	> 100 µM	> 100 µM	> 100 µM	–	–	–	–	–	–	–	–	–	–	–	–
C=C(C)[C@@H]1CC[C@]2(C(=O)O)CC[C@]3(C)[C@H](CC[C@@H]4[C@@]5(C)CCC(NC(=O)c6cccc(OC(C)=O)c6OC(C)=O)C(C)(C)[C@@H]5CC[C@]43C)[C@@H]12 (some centres undefined)	2.47 µM	2.24 µM	1.9 µM	4.52 µM	> 45.7 µM	3.03 µM	1.67 µM	> 100 µM	0.409 µM	0.371 µM	0.345 µM	1.27 µM	0.332 µM	0.46 µM	0.48 µM	0.568 µM	3.14 µM	0.656 µM	–	–
CC(C)[O-].CC(C)[O-].O=C1C=C([O-])C(=O)c2ccccc21.O=C1C=C([O-])C(=O)c2ccccc21.[Ti+4]	> 100 µM	> 100 µM	> 100 µM	> 100 µM	> 100 µM	> 100 µM	> 66.8 µM	> 100 µM	47.2 µM	> 91.3 µM	30 µM	17.4 µM	> 89.4 µM	> 100 µM	6.32 µM	–	–	> 100 µM	–	–
COc1ccc(C(=O)C(C(=O)CC(=O)Nc2cccc(C(F)(F)F)c2)c2ccc(OC)cc2)cc1 (centres undefined)	> 100 µM	> 100 µM	> 100 µM	> 100 µM	> 100 µM	> 100 µM	> 100 µM	–	–	–	–	–	–	–	–	–	> 100 µM	–	–	–
CCOC(=O)Cc1ccc2c(c1O)C(=O)c1c(ccc(CC(=O)OCC)c1O)C2=O	> 100 µM	–	> 100 µM	> 100 µM	> 100 µM	> 100 µM	> 100 µM	> 100 µM	–	–	–	–	–	–	–	–	> 100 µM	–	–	–
Cc1cc(-c2nc3sccn3c2/C=N/N=C(N)N)c(C)s1	51 µM	–	–	> 100 µM	39.1 µM	31.5 µM	30 µM	31.5 µM	25.5 µM	–	–	15.6 µM	15.1 µM	16.5 µM	14.6 µM	–	–	17.4 µM	13.4 µM	26.3 µM
Cn1nc(-c2ccccc2)c(C(=O)/C=C/c2ccc(Cl)cc2)c(N2CCCCC2)c1=O	8.65 µM	3.94 µM	4.35 µM	4 µM	5.39 µM	14.3 µM	3.75 µM	14.3 µM	–	–	–	–	–	–	–	–	–	–	–	–
O=C(O)c1ccc(Oc2nccc(-c3c(-c4ccc(F)cc4)ncn3C3CCNCC3)n2)cc1	> 25 µM	> 25 µM	> 25 µM	> 25 µM	> 25 µM	> 25 µM	> 25 µM	> 25 µM	> 25 µM	> 25 µM	> 25 µM	> 25 µM	> 25 µM	> 25 µM	> 25 µM	–	–	> 25 µM	> 25 µM	> 25 µM
O=C(c1ccccc1)c1c(-c2ccccc2)sc2nc3ccccc3nc12	> 100 µM	> 100 µM	> 100 µM	> 100 µM	> 100 µM	> 100 µM	> 100 µM	> 100 µM	–	–	–	–	–	–	–	–	–	–	–	–
CC(=O)N1C/C(=C/c2ccc(Cl)cc2)C(=O)/C(=C/c2ccc(Cl)cc2)C1	4.5 µM	8.5 µM	2.01 µM	3.95 µM	> 100 µM	3.2 µM	2.9 µM	4.1 µM	0.633 µM	2.53 µM	0.756 µM	0.924 µM	0.335 µM	1.54 µM	1.49 µM	–	–	1.94 µM	0.47 µM	2.28 µM
COc1ccc2c3c([nH]c2c1[N+](=O)[O-])C(C)N(Cc1ccc([N+](=O)[O-])cc1)CC3 (centres undefined)	> 100 µM	32.5 µM	35.8 µM	17.9 µM	77.1 µM	44.5 µM	–	> 100 µM	–	–	–	–	–	–	–	–	> 100 µM	–	–	–
COc1ccccc1C(O)(c1ccccc1)C(O)(c1ccccc1)c1ccccc1OC (centres undefined)	> 100 µM	–	> 100 µM	> 100 µM	> 100 µM	> 100 µM	> 100 µM	> 100 µM	–	–	–	–	–	–	–	–	> 100 µM	–	–	–
c1cc(N2CCCN(c3ccc(C4=NCCCN4)cc3)CC2)ccc1C1=NCCCN1	> 100 µM	> 100 µM	> 100 µM	> 100 µM	> 100 µM	> 100 µM	> 100 µM	> 100 µM	59.6 µM	> 100 µM	> 100 µM	> 100 µM	88 µM	> 100 µM	46.6 µM	–	–	52.5 µM	91.9 µM	> 100 µM
Cc1cc(O)cc2c1[C@]1(C)CCC3C(C)(C)CCC[C@]3(C)[C@H]1C2 (some centres undefined)	42.1 µM	31.9 µM	34 µM	> 100 µM	> 100 µM	36.7 µM	33.2 µM	36.4 µM	22.7 µM	18.1 µM	18.8 µM	32.4 µM	67.4 µM	20.4 µM	19.1 µM	–	–	18.7 µM	24.7 µM	65.1 µM
CCOc1ccc(N=Cc2ccc3cc(C)ccc3n2)cc1	> 100 µM	> 100 µM	> 100 µM	48 µM	69.8 µM	> 100 µM	> 100 µM	> 100 µM	–	–	–	–	–	–	–	–	–	–	–	–
